# Experimental data published in PubChem BioAssay AID2060498 (Molecular Pharmacology Branch, DTP, NCI, 2025).
# pIC50: −log10 of the molar value.
# Tested on: 171881-019-R-J1-PDC tumor spheroids, viability
# Test: Anticancer human tumor 171881-019-R-J1-PDC patient-derived invasive breast carcinoma cell line growth inhibition [GQUAD]
# Conditions: spheroids with HUVEC and MSC; for pIC50: curve of first compound; for viability, T/C: stronger effect = lower value
# Method in brief: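 Viability of tumor cells grown as complex spheroids with endothelial and stromal cells, exposed to drug combinations. Top concentration at or near clinical Cmax (else 10 microM), diluted in half-log increments.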
# [1] = second compound 0.0316 µM, first compound 0.0316 µM
# [2] = second compound 0.0316 µM, first compound 0.1 µM
# [3] = second compound 0.0316 µM, first compound 0.316 µM
# [4] = second compound 0.0316 µM, first compound 1 µM
# [5] = second compound 0.0316 µM, first compound 3.16 µM
# [6] = second compound 0.0316 µM, first compound 10 µM
# [7] = second compound 0.1 µM, first compound 0.0316 µM
# [8] = second compound 0.1 µM, first compound 0.1 µM
# [9] = second compound 0.1 µM, first compound 0.316 µM
# [10] = second compound 0.1 µM, first compound 1 µM
# [11] = second compound 0.1 µM, first compound 3.16 µM
# [12] = second compound 0.1 µM, first compound 10 µM
# [13] = second compound 0.316 µM, first compound 0.0316 µM
# [14] = second compound 0.316 µM, first compound 0.1 µM
# [15] = second compound 0.316 µM, first compound 0.316 µM
# [16] = second compound 0.316 µM, first compound 1 µM
# [17] = second compound 0.316 µM, first compound 3.16 µM
# [18] = second compound 0.316 µM, first compound 10 µM
# [19] = second compound 1 µM, first compound 0.0316 µM
# [20] = second compound 1 µM, first compound 0.1 µM
# [21] = second compound 1 µM, first compound 0.316 µM
# [22] = second compound 1 µM, first compound 1 µM
# [23] = second compound 1 µM, first compound 3.16 µM
# [24] = second compound 1 µM, first compound 10 µM
# [25] = second compound 3.16 µM, first compound 0.0316 µM
# [26] = second compound 3.16 µM, first compound 0.1 µM
# [27] = second compound 3.16 µM, first compound 0.316 µM
# [28] = second compound 3.16 µM, first compound 1 µM
# [29] = second compound 3.16 µM, first compound 3.16 µM
# [30] = second compound 3.16 µM, first compound 10 µM
# [31] = second compound 10 µM, first compound 0.0316 µM
# [32] = second compound 10 µM, first compound 0.1 µM
# [33] = second compound 10 µM, first compound 0.316 µM
# [34] = second compound 10 µM, first compound 1 µM
# [35] = second compound 10 µM, first compound 3.16 µM
# [36] = second compound 10 µM, first compound 10 µM
# 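Wherever viability, T/C is given: 100% = DMSO vehicle control viability.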
compound,measurement,setting,value
C=CCn1c(=O)c2cnc(Nc3ccc(N4CCN(C)CC4)cc3)nc2n1-c1cccc(C(C)(C)O)n1 + Cc1[nH]c2ccc(F)cc2c1-c1nc2c3cccnc3c3ncccc3c2[nH]1,pIC50,second compound 0.0316 µM,6.20
same,pIC50,second compound 0.1 µM,6.23
same,pIC50,second compound 0.316 µM,6.43
same,pIC50,second compound 1 µM,6.88
same,pIC50,second compound 3.16 µM,> 7.50
same,pIC50,second compound 10 µM,> 7.50
same,"viability, T/C",[1],91.2%
same,"viability, T/C",[2],94%
same,"viability, T/C",[3],77%
same,"viability, T/C",[4],31.3%
same,"viability, T/C",[5],21.4%
same,"viability, T/C",[6],23.4%
same,"viability, T/C",[7],103%
same,"viability, T/C",[8],86%
same,"viability, T/C",[9],68.1%
same,"viability, T/C",[10],36.7%
same,"viability, T/C",[11],20.5%
same,"viability, T/C",[12],23.2%
same,"viability, T/C",[13],78.3%
same,"viability, T/C",[14],65.4%
same,"viability, T/C",[15],56%
same,"viability, T/C",[16],28.1%
same,"viability, T/C",[17],23.1%
same,"viability, T/C",[18],25%
same,"viability, T/C",[19],68.1%
same,"viability, T/C",[20],51.4%
same,"viability, T/C",[21],42.5%
same,"viability, T/C",[22],25.5%
same,"viability, T/C",[23],23.4%
same,"viability, T/C",[24],21.3%
same,"viability, T/C",[25],11.4%
same,"viability, T/C",[26],5.61%
same,"viability, T/C",[27],5.52%
same,"viability, T/C",[28],4.19%
same,"viability, T/C",[29],5.08%
same,"viability, T/C",[30],4.35%
same,"viability, T/C",[31],43.9%
same,"viability, T/C",[32],30.7%
same,"viability, T/C",[33],23.1%
same,"viability, T/C",[34],17.5%
same,"viability, T/C",[35],15.7%
same,"viability, T/C",[36],13.6%
CC(C)(O)C1CCC(Nc2ccc3ncc(-c4cccc(C(F)(F)F)c4)n3n2)CC1 (centres undefined) + Cc1[nH]c2ccc(F)cc2c1-c1nc2c3cccnc3c3ncccc3c2[nH]1,pIC50,second compound 0.0316 µM,5.74
same,pIC50,second compound 0.1 µM,5.74
same,pIC50,second compound 0.316 µM,5.86
same,pIC50,second compound 1 µM,6.21
same,pIC50,second compound 3.16 µM,> 7.50
same,pIC50,second compound 10 µM,> 7.50
same,"viability, T/C",[1],94.8%
same,"viability, T/C",[2],104%
same,"viability, T/C",[3],88.4%
same,"viability, T/C",[4],74.5%
same,"viability, T/C",[5],23.8%
same,"viability, T/C",[6],32%
same,"viability, T/C",[7],99.5%
same,"viability, T/C",[8],96.7%
same,"viability, T/C",[9],97.8%
same,"viability, T/C",[10],73.5%
same,"viability, T/C",[11],25.4%
same,"viability, T/C",[12],31.1%
same,"viability, T/C",[13],78.7%
same,"viability, T/C",[14],71.6%
same,"viability, T/C",[15],66.2%
same,"viability, T/C",[16],60%
same,"viability, T/C",[17],24%
same,"viability, T/C",[18],25.4%
same,"viability, T/C",[19],63.6%
same,"viability, T/C",[20],47.6%
same,"viability, T/C",[21],58.8%
same,"viability, T/C",[22],45.2%
same,"viability, T/C",[23],16.4%
same,"viability, T/C",[24],10.9%
same,"viability, T/C",[25],6.94%
same,"viability, T/C",[26],4.45%
same,"viability, T/C",[27],5.15%
same,"viability, T/C",[28],3.84%
same,"viability, T/C",[29],2.07%
same,"viability, T/C",[30],0.75%
same,"viability, T/C",[31],36.5%
same,"viability, T/C",[32],42%
same,"viability, T/C",[33],28.6%
same,"viability, T/C",[34],24.1%
same,"viability, T/C",[35],5.07%
same,"viability, T/C",[36],3.8%
